Patent US20120225061A1, “TETRASUBSTITUTED CYCLOHEXYL COMPOUNDS AS KINASE INHIBITORS” (priority 2011, published 2012)
pEC50, pIC50: −log10 of the molar value. Where two headings read alike, the source gives them in different places.

How the values were obtained:
[1] = biological target: T1, Pim3 kinase (Homo sapiens, UniProt Q86V86); experiment: KinaseGlo Pim3 ATP depletion assay; format: biochemical; settings: Table 4, 40 μM ATP, 100 μM BAD peptide
Experimental: (§1) The activity of PIM3 is measured using a luciferase-luciferin based ATP detection reagent to quantify ATP depletion resulting from kinase-catalyzed phosphoryl transfer to a peptide substrate. Compounds to be tested are dissolved in 100% DMSO and directly distributed into white 384-well plates at 0.5 μl per well. […] After 15 minutes, 10 μl of 80 μM ATP in assay buffer is added. Final assay concentrations are 5 nM PIM1, 40 μM ATP, 100 μM BAD peptide and 2.5% DMSO. The reaction is performed until approximately 50% of the ATP is depleted, then stopped by the addition of 20 μl KinaseGlo Plus (Promega Corporation) solution. The stopped reaction is incubated for 10 minutes and the remaining ATP detected via luminescence on the Victor2 (Perkin Elmer).

[2] = biological target: T2, Pim1 kinase (Homo sapiens, UniProt P11309); experiment: KinaseGlo Pim1 ATP depletion assay; format: biochemical; settings: Table 4, 2.5 nM PIM1, 20 μM ATP, 40 μM BAD peptide
Experimental: as §1, with “PIM1” for “PIM3”, “40” for “80”, “Final assay concentrations are 5 nM PIM1, 40 μM ATP, 100 μM BAD peptide and 2.5% DMSO.” left out, “with” for “by”

[3] = tested on: KMS11 (human myeloma cell line); experiment: Cell proliferation assay (CellTiter-Glo) in KMS11 cells; format: cell-based; settings: KMS-11, 72 h, read-out: KMS11-luc EC50
Summary of the method: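 KMS11 cells at 2000 per well in IMDM/10% FBS were exposed to compound for 3 days. Viability was read by CellTiter-Glo luminescence.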

[4] = biological target: T3, Pim2 kinase (Homo sapiens, UniProt Q9P1W9); experiment: KinaseGlo Pim2 ATP depletion assay; format: biochemical; settings: Table 4, 5 nM PIM2, 4 μM ATP, 10 μM BAD peptide
Experimental: as §1, with “of PIM2” for “of PIM3”, “of 8” for “of 80”, “nM PIM2, 4” for “nM PIM1, 40”, “ATP, 10” for “ATP, 100”, “stopped with” for “stopped by”

[5] = biological target: T2, Pim1 kinase; experiment: Pim1 AlphaScreen assay (high ATP)
[6] = biological target: T3, Pim2 kinase; experiment: Pim2 AlphaScreen assay (high ATP)
Experimental: The activity of Pim 1, Pim 2, & Pim 3 is measured using a homogeneous bead based system quantifying the amount of phosphorylated peptide substrate resulting from kinase-catalyzed phosphoryl transfer to a peptide substrate. Compounds to be tested are dissolved in 100% DMSO and directly distributed to a white 384-well plate at 0.25 μl per well. […] This is followed by the addition of 5 μl/well of Pim 1, Pim 2 or Pim 3 kinase in assay buffer (concentrations described below). Final assay concentrations (described below) are in 2.5% DMSO. The reactions are performed for ˜2 hours, then stopped by the addition of 10 μl of 0.75 μg/ml anti-phospho Ser/Thr antibody (Cell Signaling), 10 μg/ml Protein A AlphaScreen beads (Perkin Elmer), and 10 μg/ml streptavidin coated AlphaScreen beads in stop/detection buffer (50 mM EDTA, 95 mM Tris, pH=7.5, 0.01% Tween-20). The stopped reactions are incubated overnight in the dark. The phosphorylated peptide is detected via an oxygen anion initiated chemiluminescence/fluorescence cascade using the Envision plate reader (Perkin Elmer).

[7] = biological target: T1, Pim3 kinase; experiment: Pim3 AlphaScreen assay (high ATP)

T2 sequence (P11309 whole entry): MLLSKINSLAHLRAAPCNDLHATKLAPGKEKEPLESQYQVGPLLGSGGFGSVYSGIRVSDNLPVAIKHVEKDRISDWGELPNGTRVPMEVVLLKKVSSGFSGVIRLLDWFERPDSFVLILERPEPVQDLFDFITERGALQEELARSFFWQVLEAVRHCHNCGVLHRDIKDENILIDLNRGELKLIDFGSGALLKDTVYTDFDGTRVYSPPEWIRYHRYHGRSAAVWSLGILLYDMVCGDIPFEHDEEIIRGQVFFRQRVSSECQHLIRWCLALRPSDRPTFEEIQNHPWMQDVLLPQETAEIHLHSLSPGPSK
T3 sequence (Q9P1W9 whole entry): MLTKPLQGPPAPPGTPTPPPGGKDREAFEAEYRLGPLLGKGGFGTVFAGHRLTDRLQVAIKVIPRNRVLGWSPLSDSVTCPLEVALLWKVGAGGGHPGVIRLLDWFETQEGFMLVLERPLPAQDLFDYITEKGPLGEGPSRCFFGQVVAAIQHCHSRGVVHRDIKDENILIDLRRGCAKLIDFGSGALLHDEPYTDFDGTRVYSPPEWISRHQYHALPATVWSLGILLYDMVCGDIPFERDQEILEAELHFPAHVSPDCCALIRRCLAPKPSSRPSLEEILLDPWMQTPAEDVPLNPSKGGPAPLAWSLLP

Row | pIC50 [1] | pIC50 [2] | pEC50 ([3]; Table 4, 3 days) | pIC50 [4] | pIC50 [5] | pEC50 ([3]; Table 5, 3 days) | pIC50 [6] | pIC50 [7] | Structure (SMILES)
1 | 8.89 | 9.52 | 5.97 | 8.82 |  |  |  |  | C[C@H]1C[C@@H](c2ccncc2NC(=O)c2ccc(F)c(-c3c(F)cccc3F)n2)C[C@@H](O)C1(O)CO (stereo in doubt) [Example 59, 6-(2,6-difluorophenyl)-N-(4-((1R,3R,4R,5S)-3,4-dihydroxy-4-(hydroxymethyl)-5-methylcyclohexyl)pyridin-3-yl)-5-fluoropicolinamide]
2 | 8.85 | 9.40 | 6.06 | 9.00 |  |  |  |  | CC[C@]1(O)[C@H](O)C[C@H](c2ccncc2NC(=O)c2nc(-c3c(F)cccc3F)ccc2N)C[C@@H]1C [Example 32, 3-amino-6-(2,6-difluorophenyl)-N-(4-((1R,3R,4R,5S)-4-ethyl-3,4-dihydroxy-5-methylcyclohexyl)pyridin-3-yl) picolinamide]
3 | 8.74 | 9.30 | 6.24 | 8.96 |  |  |  |  | CC[C@]1(O)[C@H](O)C[C@H](c2ccncc2NC(=O)c2nc(-c3c(F)cccc3F)c(F)cc2N)C[C@@H]1C [Example 33, 3-amino-6-(2,6-difluorophenyl)-N-(4-((1R,3R,4R,5S)-4-ethyl-3,4-dihydroxy-5-methylcyclohexyl)pyridin-3-yl)-5-fluoropicolinamide]
4 | 8.77 | 9.22 | 6.21 | 8.89 |  |  |  |  | CC[C@]1(O)[C@H](O)C[C@H](c2ccncc2NC(=O)c2nc(-c3c(F)cccc3F)ncc2N)C[C@@H]1C [Example 34, 5-amino-2-(2,6-difluorophenyl)-N-(4-((1R,3R,4R,5S)-4-ethyl-3,4-dihydroxy-5-methylcyclohexyl)pyridin-3-yl) pyrimidine-4-carboxamide]
5 | 6.82 | 7.31 | ≤ 5.00 | 6.17 |  |  |  |  | CC[C@]1(O)[C@H](C)C[C@H](c2ccncc2NC(=O)c2nc(-c3c(F)cccc3F)ncc2N)C[C@@H]1O [Example 35, 5-amino-2-(2,6-difluorophenyl)-N-(4-((1S,3S,4S,5R)-4-ethyl-3,4-dihydroxy-5-methylcyclohexyl)pyridin-3-yl) pyrimidine-4-carboxamide]
6 | 6.51 | 6.28 |  | 5.27 |  |  |  |  | C[C@H]1C[C@@H](c2ccncc2NC(=O)c2cncc(-c3ccccc3)n2)C[C@@H](O)[C@]1(C)O [Example 36, N-(4-((1R,3R,4R,5S)-3,4-dihydroxy-4,5-dimethylcyclohexyl)pyridin-3-yl)-6-phenylpyrazine-2-carboxamide]
7 | 8.60 | 8.89 |  | 8.31 |  |  |  |  | C[C@H]1C[C@@H](c2ccncc2NC(=O)c2nc(-c3ccccc3)cnc2N)C[C@@H](O)[C@]1(C)O [Example 37, 3-amino-N-(4-((1R,3R,4R,5S)-3,4-dihydroxy-4,5-dimethylcyclohexyl)pyridin-3-yl)-6-phenylpyrazine-2-carboxamide]
8 | 8.03 | 8.44 | ≤ 5.00 | 7.61 |  |  |  |  | C[C@H]1C[C@@H](c2ccncc2NC(=O)c2nc(Br)ccc2N)C[C@@H](O)[C@]1(C)O [Example 38, 3-amino-6-bromo-N-(4-((1R,3R,4R,5S)-3,4-dihydroxy-4,5-dimethylcyclohexyl)pyridin-3-yl) picolinamide]
9 | 8.35 | 8.33 | ≤ 5.00 | 7.59 |  |  |  |  | C[C@H]1C[C@@H](c2ccncc2NC(=O)c2ccnc(-c3c(F)cccc3F)n2)C[C@@H](O)[C@@]1(O)CO [Example 39, 2-(2,6-difluorophenyl)-N-(4-((1R,3R,4S,5S)-3,4-dihydroxy-4-(hydroxymethyl)-5-methylcyclohexyl)pyridin-3-yl) pyrimidine-4-carboxamide]
10 | 6.41 | 6.68 | ≤ 5.00 | 5.54 |  |  |  |  | C[C@@H]1C[C@H](c2ccncc2NC(=O)c2ccnc(-c3c(F)cccc3F)n2)C[C@H](O)[C@]1(O)CO [Example 40, 2-(2,6-difluorophenyl)-N-(4-((1S,3S,4R,5R)-3,4-dihydroxy-4-(hydroxymethyl)-5-methylcyclohexyl)pyridin-3-yl) pyrimidine-4-carboxamide]
11 | 8.54 | 9.05 |  | 8.64 |  |  |  |  | CC[C@]1(O)[C@H](O)C[C@H](c2ccncc2NC(=O)c2ccc(F)c(-c3c(F)cccc3F)n2)C[C@@H]1C [Example 41, 6-(2,6-difluorophenyl)-N-(4-((1R,3R,4R,5S)-4-ethyl-3,4-dihydroxy-5-methylcyclohexyl)pyridin-3-yl)-5-fluoropicolinamide]
12 |  |  | ≤ 5.00 | 8.01 | 7.54 | < 5.00 | 5.64 | 5.97 | C[C@H]1C[C@@H](c2ccncc2NC(=O)c2nc(-c3nc(F)c(F)cc3F)ccc2N)C[C@@H](O)[C@]1(C)O [Example 128, 5-amino-N-(4-((1R,3R,4R,5S)-3,4-dihydroxy-4,5-dimethylcyclohexyl)pyridin-3-yl)-3′,5′,6′-trifluoro-2,2′-bipyridine-6-carboxamide]
13 |  |  | 5.48 | 7.70 | 7.24 | 5.48 | 5.09 | 5.77 | C[C@H]1C[C@@H](c2ccncc2NC(=O)c2nc(-c3ccc(F)c(F)c3)ccc2N)C[C@@H](O)[C@]1(C)O [Example 129, 3-amino-6-(3,4-difluorophenyl)-N-(4-((1R,3R,4R,5S)-3,4-dihydroxy-4,5-dimethylcyclohexyl)pyridin-3-yl)picolinamide]
14 |  |  | ≤ 5.00 | 7.29 | 6.84 | < 5.00 | 4.77 | 5.29 | C[C@H]1C[C@@H](c2ccncc2NC(=O)c2nc(-c3nc(Cl)c(C#N)cc3F)ccc2N)C[C@@H](O)[C@]1(C)O [Example 131, 5-amino-6′-chloro-5′-cyano-N-(4-((1R,3R,4R,5S)-3,4-dihydroxy-4,5-dimethylcyclohexyl)pyridin-3-yl)-3′-fluoro-2,2′-bipyridine-6-carboxamide]
15 |  |  | 5.15 | 6.79 | 5.60 | 5.15 | < 4.60 | < 4.60 | C[C@H]1C[C@@H](c2ccncc2NC(=O)c2nc(-c3cc(F)ccn3)ccc2N)C[C@@H](O)[C@]1(C)O [Example 132, 5-amino-N-(4-((1R,3R,4R,5S)-3,4-dihydroxy-4,5-dimethylcyclohexyl)pyridin-3-yl)-4′-fluoro-2,2′-bipyridine-6-carboxamide]
16 |  |  | 5.27 | 8.27 | 8.14 | 5.27 | 5.58 | 6.74 | CC(=O)c1ccc(F)c(-c2ccc(N)c(C(=O)Nc3cnccc3[C@H]3C[C@@H](O)[C@](C)(O)[C@@H](C)C3)n2)n1 [Example 133, 6′-acetyl-5-amino-N-(4-((1R,3R,4R,5S)-3,4-dihydroxy-4,5-dimethylcyclohexyl)pyridin-3-yl)-3′-fluoro-2,2′-bipyridine-6-carboxamide]
17 |  |  | 5.38 | 7.29 | 7.10 | 5.38 | 4.85 | 5.47 | C[C@H]1C[C@@H](c2ccncc2NC(=O)c2nc(-c3ccc(F)cn3)ccc2N)C[C@@H](O)[C@]1(C)O [Example 134, 5-amino-N-(4-((1R,3R,4R,5S)-3,4-dihydroxy-4,5-dimethylcyclohexyl)pyridin-3-yl)-5′-fluoro-2,2′-bipyridine-6-carboxamide]
18 |  |  | ≤ 5.00 | 7.85 | 7.47 | < 5.00 | 5.25 | 5.95 | C[C@H]1C[C@@H](c2ccncc2NC(=O)c2nc(-c3cccc(F)n3)ccc2N)C[C@@H](O)[C@]1(C)O [Example 135, 5-amino-N-(4-((1R,3R,4R,5S)-3,4-dihydroxy-4,5-dimethylcyclohexyl)pyridin-3-yl)-6′-fluoro-2,2′-bipyridine-6-carboxamide]
